According to patent US11998541B2, “Method for alleviating chronic liver disease using Rosoxacin” (National Yang Ming Chiao Tung University, priority 2022, dated 2024):
Entries after “also recorded” stand apart in the source; their conditions may differ.

Tests used:
[1] = system: HepG2 cells; assay: Amount of accumulated lipid droplets in fatty acid-treated HepG2 cells (BODIPY, flow cytometry); type: cell-based, human; conditions: FIG. 2
Description: The HepG2 cells prepared in section 1 of “General Experimental Materials” were divided into 6 groups, including a normal control group, two comparative groups (i.e., comparative groups 1 and 2), a pathological control group, and two experimental groups (i.e., experimental groups 1 and 2). Each group of the HepG2 cells was incubated in a respective well of a 24-well culture plate containing 1 mL of DMEM medium at 1.2×10^5 cells/well, followed by cultivation in an incubator with culture conditions set at 37° C., 5% CO2. On the 24th and 48th hours after cultivation, the culture medium in each well was removed, and the cells of the respective group were added with the respective testing agent as shown in Table 2 below. […] After that, the supernatant was poured off, and the pellet was subjected to a fixation treatment with 4% paraformaldehyde (in PBS) for 15 minutes, followed by determining the fluorescence intensity using a flow cytometer (BD Biosciences, Cat. No. BD Accuri C6). The BODIPY was excited by an argon-ion laser (488 nm) to generate fluorescence. The fluorescence intensity was then measured at a wavelength of 504 nm, and 10,000 cells were analyzed each time. The data thus obtained were analyzed using BD Accuri C6 software, so as to obtain the mean fluorescence intensity (MFI) value in each group. […]

[2] = system: male C57BL/6JNarl mice; assay: High-fat diet induced NAFLD in mice, oral rosoxacin; type: in vivo; conditions: for lipid droplets accumulated in liver (hematoxylin-eosin histology) / aspartate transaminase (AST) content in serum / alanine transaminase (ALT) content in serum: HFD; for lipid droplets accumulated in liver (hematoxylin-eosin histology): FIG. 5; for aspartate transaminase (AST) content in serum: FIG. 6; for alanine transaminase (ALT) content in serum: FIG. 7; for liver weight: FIG. 4
Excerpt: The male C57BL/6JNarl mice were randomly divided into a normal control group, a pathological control group, and two experimental groups (i.e., experimental groups 1 and 2) (n=5 per group). The mice in the normal control group were fed ad libitum for a total of 14 weeks with a normal chow diet (NCD) (Altromin, Cat. No. 1320). In addition, the mice in each of the pathological control group and the experimental groups 1 and 2 were fed ad libitum for a total of 14 weeks with a high-fat diet (HFD) (Research Diets, Cat. No. D12492) containing 60% fat, so as to induce NAFLD.
On the 5th week after feeding the diet to the mice in each group as described in section B of this example, the mice in each of the experimental groups 1 and 2 were also fed, via oral gavage, with the rosoxacin solution prepared in section A of this example, at a respective dose of 10 mg/kg per mouse and 50 mg/kg per mouse. In addition, the mice in each of the normal control group and the pathological control group were fed, via oral gavage, with PBS at a volume of 150 μL. Each mouse was fed once every two days until the end of the 14th week after feeding with the diets.
Prior to the feeding of the diets as described in section B of this example (i.e., at the 0th week), on the 1st day of each week after starting the feeding of the diets, and at the end of the 14th week after starting the feeding of the diets, the body weight of each mouse was measured.
After completion of the determination of body weight at the end of the 14th week, the mice in each group were sacrificed using CO2, and blood samples were collected via cardiac puncture at the same time. Each of the blood samples was then subjected to centrifugation at 4° C. under a speed of 1200 g for […], so as to obtain a serum sample. In addition, liver tissue was obtained from each mouse carcass, and then was subjected to weight measurement. The data thus obtained were analyzed according to the procedures as described in section 1 of “General Procedures”.
The liver tissue of each mouse obtained in section D of this example was subjected to a fixation treatment with a 10% paraformaldehyde solution for 24 hours. Next, the fixed liver tissue was subjected to a dehydration treatment performed in sequence using ethanol solutions having concentrations of […], respectively. After that, the dehydrated liver tissue was washed with xylene, and was then embedded with paraffin, followed by slicing, so as to obtain a tissue section having a thickness of 5 μm.
After dewaxing, the tissue section was subjected to hematoxylin-eosin staining using a staining protocol well-known to those skilled in the art, and was then observed under an optical microscope (Leica, Cat. No. DM2500) at a magnification of 20×.
The serum sample of each mouse obtained in section D of this example was subjected to determination of liver function indexes (i.e., aspartate transaminase (AST) and alanine transaminase (ALT)) which was entrusted to Bio-Cando Co., Ltd., so as to assess the degree of liver injury in the mouse. The data thus obtained were analyzed according to the procedures as described in section 1 of “General Procedures”.

[3] = system: α-SMA; assay: Expression level of α-SMA in fatty acid-treated LX-2 cells (Western blotting); type: cell-based, human; conditions: fatty acid mixture + rosoxacin 50 μM (24th, 48th h), 900 μM (72nd h), p<0.0001, FIG. 8
Description: Each group of the LX-2 cells was incubated in a respective well of a 24-well culture plate containing 1 mL of DMEM medium at 1.2×10^5 cells/well, followed by cultivation in an incubator with culture conditions set at 37° C., 5% CO2. On the 24th and 48 th hours after cultivation, the culture medium in each well was removed, and the cells of the respective group were added with the respective testing agent as shown in Table 3 below. In addition, on the 72nd hour after cultivation, the cell culture of the respective group was added with the respective testing agent as shown in Table 3. On the 96th hour after cultivation, the liquid in each well was removed, and the cells were washed with PBS, followed by adding 500 μL of trypsin-EDTA to detach the cells from the bottom of the plate. Subsequently, 1 mL fresh DMEM medium was added to each well to neutralize trypsin activity, followed by centrifugation at 4° C. under a speed of 300 g for 3 minutes, so as to form a supernatant and a pellet. After that, the supernatant was poured off, and the resultant cell pellet was collected. […] The protein concentration in the total protein sample was determined using bicinchoninic acid assay kit (Thermo, Cat. No. 23227) in accordance with the manufacturer's instructions. […] Subsequently, ImageJ Imaging Software was used for semi-quantitatively calculating the corresponding protein expression level. […]

[4] = system: male C57BL/6JNarl mice; assay: CDAA diet induced NASH / liver fibrosis in mice, oral rosoxacin; type: in vivo; conditions: 50 mg/kg oral gavage once every two days, week 3 to 6 of CDAA diet
Excerpt: The male C57BL/6JNarl mice were randomly divided into a normal control group, a pathological control group, and an experimental group (n=6 per group). The mice in the normal control group were fed ad libitum for a total of 6 weeks with a normal chow diet (NCD) (Altromin, Cat. No. 1320). In addition, the mice in each of the pathological control group and the experimental group were fed ad libitum for a total of 6 weeks with a choline deficient L-amino acid defined diet (CDAA) (Research Diets, Cat. No. A21060401) containing 45% fat and 0.2% cholesterol, so as to induce NASH.
On the 3rd week after feeding the diet to the mice in each group as described in the preceding paragraph, the mice in the experimental group were also fed, via oral gavage, with the rosoxacin solution prepared in section A of Example 2, at a dose of 50 mg/kg per mouse. In addition, the mice in each of the normal control group and the pathological control group were fed, via oral gavage, with PBS at a volume of 150 μL. Each mouse was fed once every two days until the end of the 6th week after feeding with the diets. […]
Next, ImageJ Imaging software was used for quantitatively calculating the percentage (%) of Sirius Red-stained area. […] The data thus obtained were analyzed according to the procedures as described in section 1 of “General Procedures”.

[5] = system: HepG2 cells; assay: Relative amount of accumulated lipid droplets in HepG2 cells, different quinolone antibiotics (BODIPY); type: cell-based, human; conditions: fatty acid mixture + antibiotic 50 μM (24th, 48th h), 900 μM (72nd h); FIG. 11
Description: The HepG2 cells prepared in section 1 of “General Experimental Materials” were divided into 7 groups, including a pathological control group, an experimental group, and five comparative groups (i.e., comparative groups 1 to 5). Each group of the HepG2 cells was incubated in a respective well of a 24-well culture plate containing 1 mL of DMEM medium at 1.2×10^5 cells/well, followed by cultivation in an incubator with culture conditions set at 37° C., 5% CO2.
On the 24th and 48th hours after cultivation, the culture medium in each well was removed, and the cells of the respective group were added with the respective testing agent as shown in Table 5 below. […]
The cell suspension of the respective one of the pathological control group, the experimental group, and the comparative groups 1 to 5 obtained in section B of this example was added with 50 μL of BODIPY solution (DMEM containing 13 μg/mL BODIPY 493/504 (Sigma-Aldrich, Cat No. 790389)), followed by placing on ice for 30 minutes in the dark to allow neutral lipid staining to be carried out. […] After that, the supernatant was poured off, and the pellet was subjected to a fixation treatment with 4% paraformaldehyde (in PBS) for 15 minutes, followed by determination of fluorescence intensity using a flow cytometer (BD Biosciences, Cat. No. BD Accuri C6).
The BODIPY was excited by an argon-ion laser (488 nm) to generate fluorescence. […]

[6] = experimental group 1: 10 mg/kg oral gavage once every two days
[7] = experimental group 2: 50 mg/kg oral gavage once every two days

CCn1cc(C(=O)O)c(=O)c2ccc(-c3ccncc3)cc21 [rosoxacin, 1-ethyl-4-oxo-7-(4-pyridyl)-1,4-dihydroquinoline-3-carboxylic acid]
mean fluorescence intensity (MFI) value (accumulated lipid droplets) ([1]; experimental group 1: fatty acid mixture + rosoxacin 10 μM (24th, 48th h), 180 μM (72nd h)): lower than that of the pathological control group
mean fluorescence intensity (MFI) value (accumulated lipid droplets) ([1]; experimental group 2: fatty acid mixture + rosoxacin 50 μM (24th, 48th h), 900 μM (72nd h), p<0.001): significantly lower than that determined in the pathological control group
lipid droplets accumulated in liver (hematoxylin-eosin histology) [2, 6]: significantly lower than those in the pathological control group
aspartate transaminase (AST) content in serum [2, 6]: apparently or significantly lower than those determined in the pathological control group
alanine transaminase (ALT) content in serum [2, 6]: apparently or significantly lower than those determined in the pathological control group
liver weight ([2]; experimental group 1: 10 mg/kg oral gavage once every two days, week 5 to 14 of HFD, 10 mg/kg): apparently or significantly lower than that determined in the pathological control group
lipid droplets accumulated in liver (hematoxylin-eosin histology) [2, 7]: significantly lower than those in the pathological control group
aspartate transaminase (AST) content in serum [2, 7]: apparently or significantly lower than those determined in the pathological control group
alanine transaminase (ALT) content in serum ([2]; experimental group 2: 50 mg/kg oral gavage once every two days, p<0.05): significantly lower than that determined in the pathological control group
liver weight ([2]; experimental group 2: 50 mg/kg oral gavage once every two days, week 5 to 14 of HFD, 50 mg/kg): apparently or significantly lower than that determined in the pathological control group; also recorded: even lower than that of the normal control group
body weight ([2]; experimental group 2: 50 mg/kg oral gavage once every two days, week 5 to 14 of HFD, p<0.05, FIG. 3): significantly lower than that determined in the pathological control group
expression level of α-SMA (normalized to β-actin) [3]: significantly lower than that determined in the pathological control group; also recorded: even lower than that determined in the normal control group
lipid droplets accumulated in liver (hematoxylin-eosin histology) ([4]; FIG. 9): significantly less than those in the pathological control group
percentage of Sirius Red-stained area ([4]; p<0.0001, FIG. 10): significantly lower than that determined in the pathological control group
relative percentage of MFI value (pathological control group = 100%) [5]: significantly lower than that determined in the pathological control group
